The values below come from PubChem BioAssay (NCI).

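Following 48 hours of exposure in 96-well plates, responses at five concentrations were used to interpolate endpoints linearly. TGI: concentration producing complete growth inhibition.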

Experiment in all cases: NCI tumour cell line growth inhibition, 48 h
Experiment [1] has as its system ACHN renal.
Experiment [2] relates to BT-549 breast.
Experiment [3] deals with COLO 205 colon.
For experiment [4], the system named is HOP-62 NSCLC.
The subject of experiment [5] is HS 578T breast.
For experiment [6], the system named is HT29 colon.
For experiment [7], the system named is K-562 leukemia.
The subject of experiment [8] is MALME-3M melanoma.
Experiment [9] relates to MCF7 breast.
In experiment [10] the test system is MDA-MB-435.
Experiment [11] deals with NCI-H23 lung.
Experiment [12] relates to OVCAR-3 ovarian.
For experiment [13], the system named is RPMI-8226 leukemia.
In experiment [14] the test system is SF-295 CNS.
For experiment [15], the system named is SF-539 CNS.
Experiment [16] has as its system SK-OV-3 ovarian.
Experiment [17] relates to SNB-19 CNS.
Experiment [18] concerns SNB-75 CNS.
Experiment [19] has as its system T-47D breast.
Experiment [20] relates to NCI-H226 lung.

Take `COC(=O)Nc1nc2ccc(S(=O)(=O)n3nnc4ccccc43)cc2[nH]1`: the TGI in experiment [1] was above 100 µM; in experiment [2], 48.1 µM; in experiment [3], above 100 µM; in [4], 51.2 µM; in experiment [5] it was above 100 µM; in experiment [6], above 100 µM. In addition, the TGI in experiment [7], in [8], in experiment [9], in [10], in experiment [11] and in [12] was above 100 µM in each case. Besides, the TGI is above 100 µM in experiment [13]; 90.7 µM in experiment [14]; 24.4 µM in [15]; 41.2 µM in [16]; above 100 µM in experiment [17]; 21.4 µM in experiment [18]. For the same molecule, the TGI in experiment [19] is above 100 µM.
For `Cc1ccc(S(=O)(=O)/N=C(\N)N(C)N=O)cc1`, the TGI in experiment [2], in experiment [3], in experiment [4], in experiment [5], in experiment [6] and in experiment [7] was above 100 µM each time. Besides, the TGI in experiment [8], in experiment [9], in [10], in [20], in experiment [11] and in experiment [12] was above 100 µM throughout. Also, the TGI in [13], in experiment [14], in [15], in experiment [16], in [17] and in experiment [18] was above 100 µM in each case. Besides, the TGI in experiment [19] was above 100 µM.
Take `Fc1ccc(OCc2nc3cc(C(F)(F)F)ccc3nc2-c2ccccc2)cc1`: the TGI in experiment [1] is above 100 µM; in experiment [2], above 100 µM; in [3], above 100 µM; in experiment [4], above 100 µM; in experiment [5] it was above 100 µM; in [6], 64.9 µM. Moreover, the TGI in experiment [7] was above 59 µM; in experiment [8], above 100 µM; in experiment [9], above 100 µM; in experiment [10], above 100 µM; in [20] it was above 100 µM; in [11], above 100 µM. Moreover, the TGI in experiment [12], in experiment [13], in experiment [14], in experiment [15], in experiment [17] and in experiment [18] was above 100 µM throughout. In experiment [19], this molecule showed a TGI above 100 µM.
`O=C(CC(C(=O)c1ccco1)c1cccs1)c1cccs1` (stereo not drawn): the TGI in [1], in experiment [2], in experiment [3], in experiment [4], in experiment [5] and in experiment [6] was above 100 µM each time. Further, the TGI in experiment [8], in experiment [9], in [10], in experiment [20], in experiment [11] and in [12] was above 100 µM in each case. The TGI in [13], in [14], in experiment [15], in [16], in [17] and in experiment [18] was above 100 µM each time. This molecule returned a TGI in [19] above 100 µM.
Turning to `O=C(O)[C@@H]1CCC(=O)N1C(c1ccc2c(c1)OCO2)c1ccc2c(c1)OCO2`, the TGI in experiment [1], in experiment [2], in experiment [3], in experiment [4], in experiment [5] and in experiment [6] was above 100 µM throughout. Also, the TGI in experiment [7], in [8], in experiment [9], in [10], in [20] and in experiment [11] was above 100 µM throughout. Moreover, the TGI in experiment [12], in [13], in experiment [14], in experiment [15], in [17] and in experiment [18] was above 100 µM in each case. In [19], this molecule yielded a TGI above 100 µM.
For the molecule `COc1cc(/C=C/C(=O)OCCc2ccccc2)ccc1O`, the TGI in [1] was 33.9 µM; in experiment [2], 28.1 µM; in experiment [3], 34.8 µM; in experiment [4] it was 33.4 µM; in [5] it was 50 µM; in experiment [6], 44.3 µM. In addition, the TGI in experiment [7] is 85.4 µM; in [8], 31.7 µM; in [9], 44.8 µM; in experiment [10] it was 27.3 µM; in experiment [11], 36.5 µM; in [12], 36.9 µM. For the same molecule, the TGI came to 65.9 µM in experiment [13]; 35.3 µM in experiment [14]; 36.7 µM in [15]; 29.7 µM in experiment [16]; 33.9 µM in experiment [17]; 30.2 µM in experiment [18]. The same molecule showed a TGI in experiment [19] of 33.2 µM.
Turning to `O=C(CCCN1CCC2(CC1)NC(=O)c1ccccc1O2)c1ccc(F)cc1`, the TGI in [1], in experiment [2], in experiment [3], in experiment [4], in experiment [5] and in [6] was above 100 µM in each case. Moreover, the TGI in experiment [7], in experiment [8], in experiment [9], in experiment [10], in [20] and in [11] was above 100 µM in each case. Moreover, the TGI in [12], in experiment [13], in experiment [14], in experiment [15], in experiment [16] and in experiment [18] was above 100 µM throughout. For the same molecule, in experiment [19], the TGI was above 100 µM.
In the case of `CCOC(=O)CC1(O)CCCCC1(Sc1ccc(C)cc1)Sc1ccc(C)cc1` (stereo not drawn), the TGI is above 100 µM in experiment [1]; above 100 µM in experiment [2]; above 100 µM in [3]; above 100 µM in experiment [4]; 84.4 µM in experiment [5]; above 100 µM in experiment [6]. In addition, the TGI was above 100 µM in experiment [7]; 91.8 µM in experiment [8]; above 100 µM in experiment [9]; above 100 µM in experiment [10]; above 100 µM in experiment [20]; above 100 µM in [11]. The TGI in [12], in experiment [14], in experiment [15], in experiment [16], in experiment [17] and in experiment [18] was above 100 µM in each case. Further, the TGI in [19] is 85.3 µM.
`C1=Nc2sc3c(c2C2=NCCN12)CCCC3`: the TGI was found to be 30.8 µM in experiment [1]; 28.7 µM in [2]; 53.2 µM in experiment [3]; 37.2 µM in experiment [4]; 51.8 µM in experiment [5]; 32.8 µM in experiment [6]. For the same molecule, the TGI in [7] is above 100 µM; in [8] it was 32.9 µM; in experiment [9], 33.7 µM; in [10] it was 41 µM; in experiment [20] it was 33.2 µM; in [11], 29.3 µM. For the same molecule, the TGI was found to be 32.3 µM in experiment [12]; 43.3 µM in [13]; 39.6 µM in experiment [14]; 34.9 µM in [17]; 34.9 µM in experiment [18]; 39.9 µM in experiment [19].
On to `COc1cc(C=C2N=C(c3ccccc3)N(n3c(-c4ccccc4)nc4ccccc4c3=O)C2=O)cc(OC)c1OC`, for which the TGI in [1] came out at 82.2 µM; in experiment [2], 32.5 µM; in experiment [3], 52.8 µM; in experiment [4], 29.9 µM; in [5], 51.6 µM; in experiment [6], 78.1 µM. Further, the TGI in [7] was above 100 µM; in experiment [8], 38.6 µM; in [9], 60.7 µM; in experiment [10] it was 55.3 µM; in [20] it was 49.4 µM; in experiment [11], 56.6 µM. The TGI in [12] worked out at 54 µM; in experiment [14], 41 µM; in [15] it was 45.3 µM; in [16], 91.4 µM; in experiment [17], 72.3 µM; in experiment [18] it was 62.6 µM. The molecule further had a TGI in experiment [19] of 50.2 µM.
Take `CN1C(=O)N/C(=C\c2ccc(S(=O)(=O)N/N=C\C(O)C(O)C(O)CO)cc2)C1=O` (stereo not drawn): the TGI in experiment [1], in experiment [2], in experiment [3], in experiment [4], in experiment [5] and in experiment [6] was above 100 µM in each case. The TGI in experiment [7], in experiment [8], in [9], in experiment [10], in experiment [11] and in experiment [12] was above 100 µM each time. For the same molecule, the TGI in experiment [13], in [14], in experiment [16], in experiment [17], in [18] and in [19] was above 100 µM each time.
`CC(=O)OC(C)c1cc2c(s1)C(=O)c1scc(C(C)OC(C)=O)c1C2=O` (stereo not drawn): the TGI in [1] was found to be 0.628 µM; in experiment [2], 0.426 µM; in experiment [3], 1 µM; in experiment [4], 0.44 µM; in experiment [5] it was 1.41 µM; in experiment [6], 3.53 µM. Also, the TGI is above 100 µM in experiment [7]; 0.288 µM in experiment [8]; 0.605 µM in experiment [9]; 0.0815 µM in experiment [10]; 4.04 µM in [20]; 0.398 µM in experiment [11]. Besides, the TGI in experiment [14] is 0.323 µM; in [15], 0.36 µM; in experiment [16] it was 4.33 µM; in [17], 0.454 µM; in experiment [18] it was 0.332 µM; in [19] it was 2.1 µM.
In the case of `Cc1cccc2c(N)c3cccc(C(=O)NCC[N+](C)(C)Cc4sccc4[N+](=O)[O-])c3nc12`, the TGI was 18.1 µM in [1]; 66.2 µM in experiment [2]; 79.3 µM in experiment [3]; above 100 µM in experiment [4]; 28.3 µM in [5]; 18.6 µM in [6]. In addition, the TGI in [7] was above 100 µM; in experiment [8], 27.7 µM; in experiment [9], 25.2 µM; in [10], above 100 µM; in experiment [20], 32 µM; in [11], 30 µM. For the same molecule, the TGI in [12] was above 100 µM; in experiment [14], above 100 µM; in experiment [15] it was 14.4 µM; in [16], 41.3 µM; in [17], above 100 µM; in experiment [18], above 100 µM. Further, the TGI in [19] was above 100 µM.
For `CC(=O)OC[C@@H]1[C@H]2CC[C@]3(C)[C@@H](OC(C)=O)CC[C@H]3[C@@H]2CC[C@H]1C1(C)SCCS1`, the TGI in experiment [1], in experiment [2], in experiment [3], in experiment [4], in experiment [5] and in experiment [6] was above 25 µM throughout. The TGI in [7], in [8], in experiment [9], in [10], in experiment [20] and in experiment [11] was above 25 µM throughout. The TGI in experiment [12], in experiment [13], in [14], in [15], in experiment [17] and in [18] was above 25 µM throughout. The TGI in experiment [19] is above 25 µM.
